Tests used:
[1] = Liquid crystallinity: phase transition temperature measured using a polarization microscope; format: physicochemical
Experimental: A phase transition temperature of the prepared liquid crystal composition was measured using a polarization microscope.

[2] = Solubility: presence or absence of precipitation over time in cyclopentanone/methyl ethyl ketone; format: physicochemical; conditions: 50 mg, cyclopentanone/methyl ethyl ketone 3/1 by weight, solid content 30 wt %, dissolved at 60° C., cooled to room temperature (25° C.), visual precipitation over time
Experimental: 50 mg of each of the liquid crystal compositions prepared in a 1.5 mL sample bottle was weighed, and a solvent (mixture of cyclopentanone/methyl ethyl ketone at a weight ratio of 3/1) was added thereto until the solid content was 30 wt % ([…]).
Next, the mixture was heated to 60° C. and stirred to be dissolved, cooled to room temperature (25° C.), and the presence or absence of precipitation was visually confirmed over time after cooling and evaluated according to the following standard.
C: precipitation occurred within 24 hours at room temperature.

C=CC(=O)OCC(C)(C)COC(=O)CCC(=O)OCCc1ccc(OC(=O)C2CCC(C(=O)Oc3c(C(C)(C)C)cc(OC(=O)C4CCC(C(=O)Oc5cc(C(C)(C)C)c(OC(=O)C6CCC(C(=O)Oc7ccc(CCOC(=O)CCC(=O)OCC(C)(C)COC(=O)C=C)cc7)CC6)c6c5SC(=C(C#N)C#N)S6)CC4)c4c3SC(=C(C#N)C#N)S4)CC2)cc1 (centres unmarked) [Comparative Example 1]
Liquid crystallinity: phase transition temperature between isotropic liquid (Iso) and crystal (Cr) [1]: Iso 178 Cr ° C.
Solubility [2]: C (precipitation occurred within 24 hours at room temperature)
